In US20170136008A1, “OXABICYCLOHEPTANES AND OXABICYCLOHEPTENES FOR THE TREATMENT OF OVARIAN CANCER” (priority 2014, published 2017):

Columns and labels:
[1] = system: PEO4 ovarian cancer cell line; assay: MTT cytotoxicity assay, PEO4; assay type: cell-based, human; settings: Homo sapiens, PEO4, read-out: IC50, viability of ovarian cancer cell line
Method: (§1) SKOV-3 ovarian cancer cells were purchased from American Type Culture Collection (ATCC) (Manassas, Va.). SKOV-3 cells were cultured in McCoy's 5A medium (ATCC, Manassas, Va.) supplemented with 10% fetal bovine serum and 100 units/mL penicillin G sodium, 100 ug/mL streptomycin sulfate, and 292 μg/ml, L-glutamine (BioWhittaker, Wakersville, Md.). Luciferase-expressing cells were generated by infecting SKOV-3 cells with pCLNCX-luciferase retrovirus (SKOV-3-Luc) as previously reported (Wei, B. R. et al. 2009). Human OVCAR-8 ovarian cancer cells were provided by the National Cancer Institute (part of the NCI-60 collection). The PEO1, PEO4, and PEO6 ovarian cancer cell lines have previously been characterized (Langdon, S. P. et al. 1988) and were kindly provided by Dr. Ian Goldlust (National Center for Advancing Translational Sciences, Shady Grove, Md.). […]
(§2) Cell survival was measured by the 3-(4,5-dimethylthiazol-2-yl)-2,5-diphenyltetrazolium bromide (MTT, Invitrogen) assay. […] Absorbance values were determined at […] on a Spectra Max 250 spectrophotometer (Molecular Devices, Sunnyvale, Calif.). […] Cell viability was analyzed via the MTT assay as described above. […]

[2] = system: SKOV-3 cells; assay: Cell-cycle analysis (FACS), SKOV-3; assay type: cell-based, human
Method: For cell-cycle analysis, cells were washed with PBS and fixed overnight in ice-cold 70% ethanol and stored at 4° C. Cells were then centrifuged and resuspended in 100 U RNAse (Sigma-Aldrich), and incubated at 37° C. for 20 min. Propidiumidodide solution (Invitrogen, 500 μL, 50 μg/mL in DPBS) was added to each tube and incubated in the dark at 4° C. overnight. Flow cytometry analysis was performed with CellQuestPro and data analysis was completed with ModFit LT. All data is in triplicate and presented as a percent mean±SD.

[3] = system: PEO6 ovarian cancer cell line; assay: MTT cytotoxicity assay, PEO6; assay type: cell-based, human; settings: Homo sapiens, read-out: IC50, viability of ovarian cancer cell line
Method: as §1, §2

[4] = system: SKOV-3 ovarian cancer cells; assay: MTT cytotoxicity assay, SKOV-3; assay type: cell-based, human
[5] = system: HEK 293 human embryonic kidney cell lines overexpressing Pgp, MRP1, or ABCG2; assay: IC50 in ABC transporter-overexpressing HEK 293 lines; assay type: cell-based; settings: HEK 293 overexpressing Pgp
Method: When HEK 293 human embryonic kidney cell lines overexpressing Pgp, MRP1, or ABCG2 (Robey, R. W. et al. 2005) were treated with equal concentration of LB100, the IC50s of the transfected lines were not different compared with parent (non-transporter-expressing) cells or in the presence of an inhibitor (tariquidar) (FIG. 5).

[6] = system: PEO1-STOP (PEO-1s) ovarian cancer cell line; assay: MTT cytotoxicity assay, PEO1-STOP; assay type: cell-based, human; settings: Homo sapiens, read-out: IC50, viability of ovarian cancer cell line
Method: as §1, §2

CN1CCN(C(=O)C2C(C(=O)O)[C@H]3CC[C@@H]2O3)CC1 (stereo partly drawn) [LB100]
IC50 [1]: 5 ± 0.6 µM
G1 (%) ([2]; 24 h, LB100 5 μM): 51.4 ± 1.5%
G2/M (%) ([2]; 24 h, LB100 5 μM): 28.9 ± 1.2%
S (%) ([2]; 24 h, LB100 5 μM): 19.7 ± 0.8%
G1 (%) ([2]; 48 h, LB100 2 μM): 49.8 ± 0.5%
G2/M (%) ([2]; 48 h, LB100 2 μM): 25.1±0.8%
S (%) ([2]; 48 h, LB100 2 μM): 25.1 ± 0.3%
G1 (%) ([2]; 48 h, LB100 5 μM): 47.2 ± 1.9%
G2/M (%) ([2]; 48 h, LB100 5 μM): 25.1 ± 0.8%
S (%) ([2]; 48 h, LB100 5 μM): 30.2 ± 3.1%
G1 (%) ([2]; 48 h, LB100 10 μM): 36.8 ± 1.8%
G2/M (%) ([2]; 48 h, LB100 10 μM): 32.1±1.6%
S (%) ([2]; 48 h, LB100 10 μM): 31.1 ± 0.8%
G1 (%) ([2]; 48 h, LB100 15 μM): 42.3 ± 1.6%
G2/M (%) ([2]; 48 h, LB100 15 μM): 33.9±1.4%
S (%) ([2]; 48 h, LB100 15 μM): 23.8 ± 0.2%
IC50 [3]: 5.1 ± 0.2 µM
IC50 ([4]; Homo sapiens, SK-OV-3, SK-OV3, MTT, read-out: IC50, viability of ovarian cancer cell line): 10.1 ± 1.6 µM
fold less sensitive compared to the other ovarian lines ([4]; SKOV-3 vs other ovarian lines): 2 fold
IC50s of transfected lines compared with parent cells or in the presence of tariquidar [5]: not different
IC50 [6]: 6.9 ± 1 µM
